Patent US4457919A, “Method of imparting immunomodulating, antiviral or antitumor activity” (Newport Pharmaceutical International, Inc., priority 1982, dated 1984)

What was measured:
mouse spleen cells = experiment: PHA mitogen-induced lymphocyte proliferation using murine spleen cells (in vitro); format: cell-based; conditions: for Cpm Incorp. +PHA: with PHA; for Cpm Incorp. -PHA: without PHA
Source text: 1. Mitogen induced lymphocyte proliferation using murine spleen cells (in vitro).

[1] = test system: human peripheral blood lymphocytes; experiment: PHA mitogen-induced lymphocyte proliferation using human peripheral blood lymphocytes (HPBL); format: cell-based; conditions: for Cpm Incorp. +PHA: with PHA; for Cpm Incorp. +PHA / Cpm Incorp. -PHA / S.I. / fold induction at 0.036 µM / fold induction at 0.36 µM / fold induction at 3.6 µM: NPT 15392 values means of three experiments; for Cpm Incorp. -PHA: without PHA; for S.I.: NPT 15458 p ≤ 0.05; for fold induction at 0.036 µM / fold induction at 0.36 µM / fold induction at 3.6 µM: Homo sapiens, Lymphocyte, read-out: D/C (S.I. drug / control); for Immunomodulating (in vitro) lymphocyte proliferation (in words): PHA, HPBL; for Immunomodulating (in vitro) Lymph. Prolif., change: Table 11 summary
Experimental: 2. Mitogen induced lymphocyte proliferation using human peripheral blood lymphocytes (HPBL) (in vitro).
1. Twenty-two and a half grams of Ficoll 400 (Pharmacia, M.W. .perspectiveto.400,000) are dissolved in 200 ml of distilled H2 O. When most of the material is in solution, the volume is then adjusted to 250 ml with distilled H2 O.
2. Thirty-four grams of Hypaque (sodium diatrizoate, Sterling Organics, M.W. .perspectiveto.636) are dissolved in 100 ml distilled H2 O.
3. Solutions are then sterile filtered thorugh a 0.45μ millipore filter and stored in sterile containers at 4° C. away from light.
4. Working solutions are prepared by mixing 10 ml Hypaque solution with 24 ml Ficoll solution. The mixture is warmed to 25° C. with constant stirring.
1. Human blood samples are obtained by veinipuncture into heparinized 20 ml-vacutainer tubes. Fifteen to twenty ml of the undiluted blood is gently layered over an equal volume of Ficoll-Hypaque solution in sterile 50 ml polycarbonate centrifuge tubes using aseptic techniques.
2. Prepared samples are centrifuged at 25° C., 400×g for 30 mins. The fuzzy white band at the interface is aseptically aspirated into a 50 ml sterile centrifuge tube with 10-20 ml RPMI-1640. The cells are washed once at 25° C. 400×g for 10 mins. at 25° C.
3. Pelleted PBL's are resuspended in 1 ml RPMI for every 8 ml whole blood originally used and counted with a Coulter counter. Concentration is adjusted with RPMI-1640 supplemented with glutamine and antibiotics. The cells are held at room temperatue until used.
1. Lipopolysaccharide B or Phytohemagglutinin P powder is weighed and dissolved in RPMI-1640 at a concentration of 1000 μg/ml (1 mg/ml) and filter sterilized through a 0.45μ millipore filter.
2. Solutions are aliquotted (1 ml/tube) asceptically into labelled sterile cryotubes and frozen. Samples are not refrozen after partial use, but may be stored for a day or two at 4° C. Lyophilized powder is kept refrigerated at 4° C.
1. PBL's are prepared as in SOP #I-004 in serum-free RPMI-1640 supplemented with glutamine and antibiotic-antimycotic solution (GIBCO). One tenth ml per well is added to each well of 96-well microtest culture plates (CoStar Plastics) with 8-channel automatic micropipettors (Flow Labs.) fitted with sterile tips.
2. Mitogen solutions are thawed rapidly and diluted to 4 times the desired concentration with RPMI-1640.
3. Test compounds are prepared for use as per SOP #C-002, using RPMI-1640 as diluent, and diluted to 4 times the final desired concentration.
4. Fifty μl of each dilution of mitogen and/or test compound is added to 6 replicate cultures. Plain RPMI-1640 is used in the same amounts in control cultures for a total volume of 0.2 ml/well.
5. Cultures are incubated at 37° C. in a humidified 95% air, 5% CO2 atmosphere (pH .perspectiveto.6.0- 7.0) for 48 hours. The cells are then labelled with 0.5μCi/well ^3 H-TdR (Thymidine) for an additional 18 hours. the cells are harvested with a multiple automatic sample harvester (M.A.S.H.) machine. Nonadherent cells are aspirated onto glass fiber filter strips with 0.9% saline solution (10 well flushes) and the cells lysed with distilled water (20 well flushes). The strips are thoroughly air dried, residual cell deposits cut from the strips and each sample placed in 1 dram glass scintillation vials. Scintillation fluid concentrate (Scintiprep 1, Fisher Chemicals) is diluted 1:50 with scintillation grade toluene (Packard) and 1 ml added to each vial. Samples are evaluated by liquid scintillation spectroscopy and the data expressed as the means counts per minute per test group.

[2] = Formation of NPT 15392 on incubation with liver homogenate (HPLC); format: in vitro ADME; conditions: for % of NPT 15392: 0 hrs.
Source text: | ^a Determined using HPLC

[3] = test system: viruses, immune response, leukemic lymphocytes; conditions: cited from earlier work
[4] = Blood levels after i.p. administration to mice; format: in vivo; conditions: for Convertible to NPT 15392, Biological: Mouse: Table 11 summary; for Blood Level of NPT 15458: i.p., 360 μm/kg of compound administered
Source text: This clearly establishes the fact that NPT 15458 and NPT 15457 can produce NPT 15392 in vivo and further at least one of these derivatives gives much higher blood levels allowing for greater activity.

L1210 (mouse) = experiment: Inhibition of growth of L1210 mouse leukemia cells; format: cell-based; conditions: 10 μg/ml
Experimental: (§1) Effect of Erythro-9-(2-Acetoxy-3-Nonyl)-Hypoxanthine on Growth of Tumor (Leukemia) Cells In Vivo
The activity of one of these agents, NPT 15458 as inhibitors of the growth of abnormal lymphocytes has been determined. […] A 40% inhibition of L-1210 cells was effected by NPT 15458 at 10 μg/ml.

8068 (Human) = experiment: Inhibition of growth of 8068 human tumor (leukemia) cells; format: cell-based; conditions: 10 μg/ml
Source text: as §1

[5] = test system: Vero Cells, Liver Homogenate, and Human Peripheral Blood Lymphocytes; experiment: Conversion of pro-drugs to NPT 15392 by animal cells and tissues, stated in words; format: in vitro ADME; conditions: NPT 15458 compared with NPT 15457
[6] = Mus musculus, Lymphocyte, 10 ng/ml, read-out: D/C (S.I. drug / control)

Row | Compound | S.I. (stimulation index) (mouse spleen cells; 10 ng/ml) | Cpm Incorp. +PHA (mouse spleen cells; 10 ng/ml) | Cpm Incorp. -PHA (mouse spleen cells; 10 ng/ml) [Cpm] | fold induction at 0.01 µg/mL (mouse spleen cells; [6]) | Cpm Incorp. +PHA ([1]; 0.036 n moles/ml) | Cpm Incorp. -PHA ([1]; 0.036 n moles/ml) [Cpm] | S.I. ([1]; 0.036 n moles/ml) | Cpm Incorp. +PHA ([1]; 0.36 n moles/ml) | Cpm Incorp. -PHA ([1]; 0.36 n moles/ml) [Cpm] | S.I. ([1]; 0.36 n moles/ml) | Cpm Incorp. +PHA ([1]; 3.6 n moles/ml) | Cpm Incorp. -PHA ([1]; 3.6 n moles/ml) [Cpm] | S.I. ([1]; 3.6 n moles/ml) | fold induction at 0.036 µM ([1]; 0.036 n moles/ml) | fold induction at 0.36 µM ([1]; 0.36 n moles/ml) | fold induction at 3.6 µM ([1]; 3.6 n moles/ml) | Immunomodulating (in vitro) lymphocyte proliferation (in words) [1] | Immunomodulating (in vitro) Lymph. Prolif., change [1] | % of NPT 15392 [2] [%] | metabolised at 0.5 h [2] [%] | other results
1 | CCCCCC[C@H]([C@H](C)O)n1cnc2c(=O)[nH]cnc21 (relative stereo) [NPT 15392, erythro-9-(2-hydroxy-3-nonyl)-hypoxanthine, reference compound] | 588 | 68,804 Cpm | 117 | 1.25 | 59,167 Cpm | 297 | 199 | 69,057 Cpm | 577 | 120 | 67,328 Cpm | 381 | 176 | 1.27 | 0.76 | 1.13 | Yes | 12-27% | 100 | 100 | Previously demonstrated activity (in words) [3]: antiviral immunomodulating and anti-tumor activity
2 | CCCCCC[C@H]([C@H](C)OC(=O)CCC(=O)O)n1cnc2c(=O)[nH]cnc21 (relative stereo) [NPT 15457, Erythro-9-(2-Succinoxy-3-Nonyl) Hypoxanthine] | – | – | – | – | 59,569 Cpm | 240 | 250 | 59,689 Cpm | 228 | 261 | 52,149 Cpm | 232 | 224 | 1.28 | 1.33 | 1.14 | effectve in augmenting PHA induced lymphocyte proliferation and Yes | 14-28% | 0 | 14 | Convertible to NPT 15392, Biological: Mouse [4]: 25
3 | CCCCCC[C@H]([C@H](C)OC(C)=O)n1cnc2c(=O)[nH]cnc21 (relative stereo) [NPT 15458, erythro-9-(2-Acetoxy-3-Nonyl)-Hypoxanthine] | 436 | 66,800 Cpm | 153 | 0.93 | 59,898 Cpm | 214 | 280 | 63,858 Cpm | 221 | 289 | 69,055 Cpm | 238 | 290 | 1.43 | 1.48 | 1.48 | effectve in augmenting PHA induced lymphocyte proliferation and Yes | 43-48% | 0 | 70 | S.I. (stimulation index) (mouse spleen cells; 50 ng/ml): 589; Cpm Incorp. +PHA (mouse spleen cells; 50 ng/ml): 81,297 Cpm; Cpm Incorp. -PHA (mouse spleen cells; 50 ng/ml): 138 Cpm; fold induction at 0.05 µg/mL (mouse spleen cells; Mus musculus, Lymphocyte, 50 ng/ml, read-out: D/C (S.I. drug / control)): 1.25; activation at 50 µg/mL (mouse spleen cells; Mus musculus, Lymphocyte, 50 μg/ml, read-out: Increase of PHA induced lymphocyte proliferation): ~25%; Convertible to NPT 15392, Biological: Mouse [4]: 100; Blood Level of NPT 15458 ([4]; animal # 1): 0 μm/ml × 10^3; Blood Level of NPT 15458 ([4]; animal # 2): 0 μm/ml × 10^3; inhibition at 10 µg/mL (L1210 (mouse)): 40%; inhibition at 10 µg/mL (8068 (Human)): 32%; Conversion to NPT 15392 (in words) [5]: appears to occur to a greater extent than the conversion of NPT 15457 to NPT 15392
